Patent publication US20250073339A1, “CONJUGATES COMPRISING CLEAVABLE LINKERS” (priority 2023, published 2025)
Numbered stars: 1 amine (or outer) side, 2 acyl side, 3 side chain; on linkers, the order of the positions; unused ones are H or OH. Square brackets hold non-standard residues; d marks the D form. Peptide text beside a SMILES is read from it. * marks the point of attachment. X1 = O=C(O)[C@H]1O[C@@H](Oc2ccc(COC(=O)[*:2])cc2N[*:1])[C@H](O)[C@@H](O)[C@@H]1O; CH3O(CH2CH2O)11CH2CH2CO = COCCOCCOCCOCCOCCOCCOCCOCCOCCOCCOCCOCCC(=O)*; Dolaproine = CO[C@@H]([C@@H]1CCCN1)[C@@H](C)C(=O)O; Hexanoyl(6-maleimido) = O=C1C=CC(=O)N1CCCCCC(=O)*; Propanoyl(3-maleimido) = O=C1C=CC(=O)N1CCC(=O)*; Dil = CC[C@H](C)[C@H](NC)[C@@H](CC(=O)O)OC; PABC = O=C(OCc1ccc(N[*:1])cc1)[*:2]; X2 = C[C@@H](N*)[C@@H](O)c1ccccc1; Cit = NC(=O)NCCC[C@H](N)C(=O)O; NMeV = CN[C@H](C(=O)O)C(C)C; βAla = NCCC(=O)O

Columns and labels:
Type in all cases: biochemical
[1] = molecular target: T1, Human neutrophil elastase (Homo sapiens, UniProt P08246); test: Linker-Payload enzymatic cleavage with human neutrophil elastase; conditions: 0.67 μM enzyme, 67 μM Linker-Payload, pH 7.4, 37° C., 24 hours
T1 sequence (P08246 30-267): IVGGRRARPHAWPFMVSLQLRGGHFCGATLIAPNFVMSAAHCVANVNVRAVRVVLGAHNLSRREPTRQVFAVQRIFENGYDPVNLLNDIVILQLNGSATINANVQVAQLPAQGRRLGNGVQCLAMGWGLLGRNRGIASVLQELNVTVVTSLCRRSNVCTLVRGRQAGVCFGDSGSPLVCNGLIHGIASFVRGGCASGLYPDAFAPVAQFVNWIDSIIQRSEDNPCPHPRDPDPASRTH
Procedure: (§1) 0.67 μM Human neutrophil elastase was added to 67 μM Linker-Payload (1:100) in Tris Buffered Saline, pH 7.4. The mixture was incubated at 37° C. for a duration of 24 hours with intermediate timepoints collected and diluted 1:1 with buffer containing acetonitrile, water and formic acid. The sample was measured by reverse-phase HPLC with data quantified against a standard curve.

Cathepsin B = Cathepsin B (Homo sapiens, UniProt P07858); test: Linker-Payload enzymatic cleavage with cathepsin B; conditions: FIG. 1B; 0.14 μM enzyme, 70 μM Linker-Payload, pH 5.0, 37° C., 24 hours
Procedure: as §1, with “0.14” for “0.67”, “Cathepsin B” for “Human neutrophil elastase”, “70” for “67”, “(1:500)” for “(1:100)”, “50 mM sodium acetate, 1 mM DTT,” for “Tris Buffered Saline,”, “5.0.” for “7.4.”

β-glucuronidase = molecular target: T2, β-glucuronidase (Homo sapiens, UniProt P08236); test: Linker-Payload enzymatic cleavage with β-glucuronidase; conditions: 4 nM enzyme, 40 μM Linker-Payload, pH 5.0, 37° C., 24 hours; for cleavage in the presence of β-glucuronidase: FIG. 1A
T2 sequence (P08236 23-651): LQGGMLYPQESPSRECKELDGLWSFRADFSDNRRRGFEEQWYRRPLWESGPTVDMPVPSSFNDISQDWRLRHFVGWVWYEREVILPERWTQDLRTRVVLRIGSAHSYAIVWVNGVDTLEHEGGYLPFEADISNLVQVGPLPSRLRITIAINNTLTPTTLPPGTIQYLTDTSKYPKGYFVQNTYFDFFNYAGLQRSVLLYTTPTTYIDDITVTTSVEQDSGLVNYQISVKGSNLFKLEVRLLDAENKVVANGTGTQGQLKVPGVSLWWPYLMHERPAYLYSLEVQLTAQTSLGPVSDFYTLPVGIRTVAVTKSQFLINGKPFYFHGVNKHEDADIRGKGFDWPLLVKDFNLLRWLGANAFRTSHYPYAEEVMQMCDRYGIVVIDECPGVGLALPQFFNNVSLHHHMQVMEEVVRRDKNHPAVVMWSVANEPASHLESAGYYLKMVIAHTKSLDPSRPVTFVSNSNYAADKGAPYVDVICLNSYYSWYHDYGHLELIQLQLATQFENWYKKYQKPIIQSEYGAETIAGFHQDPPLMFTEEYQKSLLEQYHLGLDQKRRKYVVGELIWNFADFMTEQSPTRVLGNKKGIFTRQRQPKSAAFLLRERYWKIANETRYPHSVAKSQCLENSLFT
Procedure: as §1, with “4 nM β-glucuronidase” for “0.67 μM Human neutrophil elastase”, “40” for “67”, “(1:10,000)” for “(1:100)”, “50 mM sodium acetate,” for “Tris Buffered Saline,”, “5.0.” for “7.4.”

Row | SMILES | cleavage in the presence of human neutrophil elastase ([1]; FIG. 1C) | cleavage in the presence of cathepsin B (Cathepsin B) | cleavage in the presence of β-glucuronidase (β-glucuronidase) | cleavage in the presence of β-glucuronidase relative to references (β-glucuronidase; FIG. 1E) | cleavage in the presence of human neutrophil elastase ([1]; FIG. 1D)
1 | CC[C@H](C)[C@@H]([C@@H](CC(=O)N1CCC[C@H]1[C@H](OC)[C@@H](C)C(=O)N[C@H](C)[C@@H](O)c1ccccc1)OC)N(C)C(=O)[C@@H](NC(=O)[C@H](C(C)C)N(C)C(=O)OCc1ccc(NC(=O)[C@H](CCCNC(N)=O)NC(=O)[C@@H](NC(=O)CCCCCN2C(=O)C=CC2=O)C(C)C)cc1)C(C)C [LP1, maleimidocaproyl-valine-citrulline-p-aminobenzoyloxycarbonyl-MMAE, reference compound] ({Hexanoyl(6-maleimido)}-V[Cit][PABC][NMeV]V[Dil][Dolaproine]-X2) | underwent more rapid cleavage | – | – | – | –
2 | CC[C@H](C)[C@@H]([C@@H](CC(=O)N1CCC[C@H]1[C@H](OC)[C@@H](C)C(=O)N[C@H](C)[C@@H](O)c1ccccc1)OC)N(C)C(=O)[C@@H](NC(=O)[C@H](C(C)C)N(C)C(=O)OCc1ccc(O[C@@H]2O[C@H](C(=O)O)[C@@H](O)[C@H](O)[C@H]2O)c(CNC(=O)CCNC(=O)COC2(CNC(=O)CCN3C(=O)C=CC3=O)CN(C(=O)CCOCCOCCOCCOCCOCCOCCOCCOCCOCCOCCOCCOC)C2)c1)C(C)C [LP2] | did not undergo rapid cleavage | neither LP2 nor LP3 underwent rapid cleavage | underwent significant cleavage | underwent slower cleavage than both LP7 (Reference) and LP8 (Reference) | did not undergo rapid cleavage
3 | CC[C@H](C)[C@@H]([C@@H](CC(=O)N1CCC[C@H]1[C@H](OC)[C@@H](C)C(=O)N[C@H](C)[C@@H](O)c1ccccc1)OC)N(C)C(=O)[C@@H](NC(=O)[C@H](C(C)C)N(C)C(=O)OCc1ccc(O[C@@H]2O[C@H](C(=O)O)[C@@H](O)[C@H](O)[C@H]2O)c(CNC(=O)COC2(CNC(=O)CCN3C(=O)C=CC3=O)CN(C(=O)CCOCCOCCOCCOCCOCCOCCOCCOCCOCCOCCOCCOC)C2)c1)C(C)C [LP3] | did not undergo rapid cleavage | neither LP2 nor LP3 underwent rapid cleavage | underwent significant cleavage | – | –
4 | CC[C@H](C)[C@@H]([C@@H](CC(=O)N1CCC[C@H]1[C@H](OC)[C@@H](C)C(=O)N[C@H](C)[C@@H](O)c1ccccc1)OC)N(C)C(=O)[C@@H](NC(=O)[C@H](C(C)C)N(C)C(=O)OCc1ccc(O[C@@H]2O[C@H](C(=O)O)[C@@H](O)[C@H](O)[C@H]2O)c(CNC(=O)CCNC(=O)[C@H](CCCCNC(=O)CCOCCOCCOCCOCCOCCOCCOCCOCCOCCOCCOCCOC)NC(=O)CCN2C(=O)C=CC2=O)c1)C(C)C [LP7, reference compound] | – | – | – | – | did not undergo rapid cleavage
5 | CC[C@H](C)[C@@H]([C@@H](CC(=O)N1CCC[C@H]1[C@H](OC)[C@@H](C)C(=O)N[C@H](C)[C@@H](O)c1ccccc1)OC)N(C)C(=O)[C@@H](NC(=O)[C@H](C(C)C)N(C)C(=O)OCc1ccc(O[C@@H]2O[C@H](C(=O)O)[C@@H](O)[C@H](O)[C@H]2O)c(NC(=O)CCNC(=O)[C@H](CCCCNC(=O)CCOCCOCCOCCOCCOCCOCCOCCOCCOCCOCCOCCOC)NC(=O)CCN2C(=O)C=CC2=O)c1)C(C)C [LP8, reference compound] ({Propanoyl(3-maleimido)}-K(CH3O(CH2CH2O)11CH2CH2CO)[βAla][X1][NMeV]V[Dil][Dolaproine]-X2) | – | – | – | – | did not undergo rapid cleavage
